# Reference: BindingDB's records for doi:10.1158/1535-7163.MCT-07-0187 (Burnham Institute For Medical Research, 2007)
# Target: T1, Fatty acid synthase [2202-2509] (Homo sapiens, UniProt P49327)
# T1 construct: 2202-2509
# Experiment: Fluorogenic Assay for Detection of FASTE Inhibition
# Settings: pH 7.5; 37 °C
# Procedure: The reaction mixture consisted of FAS thioesterase domain (FASTE) in buffer, which was preincubated with test compounds for 30 min. The reaction was initiated by addition of substrate 4-MUH. […] The inhibition constants (Ki) were calculated using the equation of Cheng and Prusoff.
# T1 sequence (P49327 2202-2509): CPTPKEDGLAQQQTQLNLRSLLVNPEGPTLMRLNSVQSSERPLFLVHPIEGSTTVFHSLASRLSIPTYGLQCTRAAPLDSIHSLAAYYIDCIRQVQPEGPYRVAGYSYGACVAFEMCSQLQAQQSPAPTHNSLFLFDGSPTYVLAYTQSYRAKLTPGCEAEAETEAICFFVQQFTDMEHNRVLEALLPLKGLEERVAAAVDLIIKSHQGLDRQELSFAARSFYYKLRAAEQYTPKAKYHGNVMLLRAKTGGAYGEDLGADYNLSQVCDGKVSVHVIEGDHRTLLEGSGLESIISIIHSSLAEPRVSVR
row,SMILES,Ki [nM]
1,"O=C1NC(=O)N(Cc2ccccc2)C(=O)/C1=C/c1ccc(-c2ccccc2Cl)o1 [(5E)-1-benzyl-5-{[5-(2-chlorophenyl)furan-2-yl]methylidene}-1,3-diazinane-2,4,6-trione]",850
2,"Cc1ccccc1N1C(=O)NC(=O)C(=Cc2ccc(-c3ccc(F)cc3)o2)C1=O [(5E)-5-{[5-(4-fluorophenyl)furan-2-yl]methylidene}-1-(2-methylphenyl)-1,3-diazinane-2,4,6-trione]",910
3,"O=C1NC(=O)N(c2cccc(Br)c2)C(=O)C1=Cc1ccc(-c2ccccc2[N+](=O)[O-])o1 [(5E)-1-(3-bromophenyl)-5-{[5-(2-nitrophenyl)furan-2-yl]methylidene}-1,3-diazinane-2,4,6-trione]",880
4,"Cc1cc(C)cc(N2C(=O)NC(=O)C(=Cc3ccc(-c4ccccc4)o3)C2=O)c1 [(5E)-1-(3,5-dimethylphenyl)-5-[(5-phenylfuran-2-yl)methylidene]-1,3-diazinane-2,4,6-trione]",380
